Several values for one entry are separate records, joined by “and”; a condition that tells them apart may be missing. Identical values can stand only once. Entries after “also recorded” stand apart in the source; their conditions may differ.
Legend:
Type in all cases: cell-based
Px1 hemi-channels = target: T1, Px1 hemi-channels (Rattus norvegicus, UniProt P60570); assay: Px1 hemi-channel currents in single Xenopus oocytes (two-electrode voltage-clamp)
T1 construct: expressed in transfected cells; host or cells: Xenopus laevis oocytes injected with in vitro transcribed RNA (pBSxG vector) plus antisense to endogenous Cx38
T1 sequence (P60570 whole entry): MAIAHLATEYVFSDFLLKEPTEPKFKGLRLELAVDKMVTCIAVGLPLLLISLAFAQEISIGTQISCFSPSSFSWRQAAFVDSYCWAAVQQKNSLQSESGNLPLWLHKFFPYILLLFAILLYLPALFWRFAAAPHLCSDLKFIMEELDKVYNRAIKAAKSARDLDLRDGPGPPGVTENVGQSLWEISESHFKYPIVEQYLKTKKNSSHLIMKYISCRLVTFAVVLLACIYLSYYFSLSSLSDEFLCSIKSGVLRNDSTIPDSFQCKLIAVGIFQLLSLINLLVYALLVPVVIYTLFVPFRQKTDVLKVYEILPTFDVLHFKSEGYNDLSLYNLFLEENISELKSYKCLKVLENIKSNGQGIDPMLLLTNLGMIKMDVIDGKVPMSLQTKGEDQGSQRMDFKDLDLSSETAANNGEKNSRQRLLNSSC
Procedure: For physiological analysis, cells were injected with a total volume of 40 nl of either an antisense oligonucleotide (3 ng/cell) to suppress the endogenous Xenopus Cx38 (30), or a mixture of antisense plus the specified RNA (20-80 ng/cell). The ability of pannexins to form hemi-channels was assessed in single oocytes 2-4 days after RNA injection, using a two-electrode voltage-clamp.
Whole-cell membrane currents (Im) were measured from single oocytes co-injected with pannexin RNAs and an oligonucleotide antisense to Xenopus Cx38 (FIG. 3A). Cells were initially clamped at a membrane potential (Vm) of −40 mV and depolarizing steps lasting 2 sec were applied in 10 mV increments up to +60 mV (bottom traces).
(§1) Stage V-VI cells were individually selected under a dissecting microscope and cultured thereafter in control medium at 18° C. For physiological analysis, all cells were injected with a total volume of 40 nl of either an antisense oligonucleotide (3 ng/cell) to suppress the endogenous Xenopus Cx38 (30; 51), or a mixture of antisense (as above) plus the specified pannexin or connexin RNA. The following amounts of RNAs were injected: 40-80 ng/cell for Px1 and Px2 RNAs, either separately or co-injected at a 1:1 ratio; 4 ng/cell for Cx46; 10-20 ng/cell for Cx52.6. For analysis of Cx46 hemi-channels, the extracellular Ca^2+ concentration was raised to 2.9 mM to prevent the lysis of the injected oocytes that occurs in control medium, which contains 0.9 mM Ca^2+ (53). To characterize hemi-channel activity, current recordings were performed in single oocytes 24-96 hr after RNA injection, using a two-electrode voltage-clamp procedure.
(§2) The setup, hardware and software used for electrophysiological measurements and data analysis were as previously described (54; 49). Cells were clamped at −40 mV, and whole cell currents recorded in response to depolarizing voltage steps (from −20 to +60 mV in 20 mV increments) imposed for 2 sec. Current outputs were filtered at 200 Hz and sampled at 500 Hz.
All experiments were carried out at 18° C. Carbenoxolone (the succinyl ester of glycyrrhetinic acid), β-glycyrrhetinic acid and flufenamic (Sigma-Aldrich) were prepared freshly by dissolving them in either water (in the case of carbenoxolone) or dimethyl sulfoxide (DMSO), whose final concentration never exceeded 0.1%. […] Oocytes were placed on a Teflon tubing in a perfusion chamber and drugs were delivered using an electronically controlled gravity flow perfusion system (ALA Scientific Instruments, Westbury, N.Y.). […] Current-voltage (I-V) relationships were generated by plotting peak current values above holding currents (ΔIm) versus membrane potential. The time constants (τ) of voltage-dependent transitions of hemi-channel currents were calculated using data fitting functions in Origin 6.0 (Microcal Software, Northampton, Mass.). In all experiments, positive controls showing the effect of the tested drugs were routinely included.

Px1/Px2 hemi-channels = target: T2, Px1/Px2 hemi-channels (Rattus norvegicus, UniProt P60570+P60571); assay: Heteromeric Px1/Px2 hemi-channel currents in single Xenopus oocytes (two-electrode voltage-clamp)
T2 construct: expressed in transfected cells; host or cells: Xenopus laevis oocytes co-injected with Px1 and Px2 RNA (1:1) plus antisense to endogenous Cx38
T2 sequence (P60570 whole entry): as above
T2 sequence (P60571 11-674): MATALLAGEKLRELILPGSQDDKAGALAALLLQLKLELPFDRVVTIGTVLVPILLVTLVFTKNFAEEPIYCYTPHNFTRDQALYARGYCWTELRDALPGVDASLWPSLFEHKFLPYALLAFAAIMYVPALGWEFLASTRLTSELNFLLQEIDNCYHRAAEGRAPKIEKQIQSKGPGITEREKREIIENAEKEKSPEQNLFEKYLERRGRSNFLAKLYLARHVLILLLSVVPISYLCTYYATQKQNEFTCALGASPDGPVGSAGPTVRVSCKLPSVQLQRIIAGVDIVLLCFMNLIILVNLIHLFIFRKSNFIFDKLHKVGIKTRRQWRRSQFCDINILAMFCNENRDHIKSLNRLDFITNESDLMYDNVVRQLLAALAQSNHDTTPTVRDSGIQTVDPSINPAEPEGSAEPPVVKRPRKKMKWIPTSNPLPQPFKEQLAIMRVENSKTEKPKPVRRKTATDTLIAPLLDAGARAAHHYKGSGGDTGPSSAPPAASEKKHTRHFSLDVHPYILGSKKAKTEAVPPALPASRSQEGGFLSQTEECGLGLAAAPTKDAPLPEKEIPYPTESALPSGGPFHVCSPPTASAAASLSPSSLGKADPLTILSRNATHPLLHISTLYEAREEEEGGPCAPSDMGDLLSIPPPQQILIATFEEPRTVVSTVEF
Procedure: as §1, §2
All experiments were carried out at 18° C. Carbenoxolone (the succinyl ester of glycyrrhetinic acid), β-glycyrrhetinic acid and flufenamic (Sigma-Aldrich) were prepared freshly by dissolving them in either water (in the case of carbenoxolone) or dimethyl sulfoxide (DMSO), whose final concentration never exceeded 0.1%. […] Oocytes were placed on a Teflon tubing in a perfusion chamber and drugs were delivered using an electronically controlled gravity flow perfusion system (ALA Scientific Instruments, Westbury, N.Y.). Cells were incubated for 15-30 minutes in the presence of the different drugs and reversibility was recorded after extensive washings in control medium. Current-voltage (I-V) relationships were generated by plotting peak current values above holding currents (ΔIm) versus membrane potential. The time constants (τ) of voltage-dependent transitions of hemi-channel currents were calculated using data fitting functions in Origin 6.0 (Microcal Software, Northampton, Mass.). In all experiments, positive controls showing the effect of the tested drugs were routinely included.

Cx46 hemi-channels = target: T3, Cx46 hemi-channels (Rattus norvegicus, UniProt P29414); assay: Cx46 hemi-channel currents in single Xenopus oocytes (two-electrode voltage-clamp)
T3 construct: expressed in transfected cells; host or cells: Xenopus laevis oocytes injected with Cx46 RNA (4 ng/cell) plus antisense to endogenous Cx38
Procedure: as §1, §2
All experiments were carried out at 18° C. Carbenoxolone (the succinyl ester of glycyrrhetinic acid), β-glycyrrhetinic acid and flufenamic (Sigma-Aldrich) were prepared freshly by dissolving them in either water (in the case of carbenoxolone) or dimethyl sulfoxide (DMSO), whose final concentration never exceeded 0.1%. […] Cells were incubated for 15-30 minutes in the presence of the different drugs and reversibility was recorded after extensive washings in control medium. […] The time constants (τ) of voltage-dependent transitions of hemi-channel currents were calculated using data fitting functions in Origin 6.0 (Microcal Software, Northampton, Mass.). […]

## O=C(O)c1ccccc1Nc1cccc(C(F)(F)F)c1 [flufenamic acid]
Px1 hemi-channels; 30 μM FFA, 30 min, at the more positive potentials
  inhibition of Px1 currents: 10-15%
Px1 hemi-channels; 300 μM FFA, +60 mV, listed as FFA
  effect on time constant (τ) of Px1 channel closure: did not affect the time constant of channel closure; also recorded: did not show any appreciable change
Px1 hemi-channels; highest FFA concentration used (300 μM), +60 mV
  extent of Px1 channel blockade: ≤ 33%
Px1 hemi-channels; increasing FFA concentrations up to 300 μM, 30 min, listed as FFA
  effect on Px1 hemi-channels: moderate inhibition of Px1 currents; also recorded: modest inhibition of Px1 hemi-channels only at the highest dose
Px1 hemi-channels; summary statement
  inhibitory effect on pannexins: only a modest inhibitory effect
Px1/Px2 hemi-channels; 30 μM FFA, n=12
  inhibition of Px1/Px2 current amplitudes at +60 mV: about 15%
Px1/Px2 hemi-channels; 30 μM FFA, 603±123 nA in MB, n=12
  Px1/Px2 current amplitude at +60 mV: 504±101 nA
Px1/Px2 hemi-channels; 300 μM FFA, 609±135 nA before, n=11
  Px1/Px2 current amplitude at +60 mV: 448±104 nA
Px1/Px2 hemi-channels; highest FFA concentration (300 μM), n=11, read-out: inhibition of Px1/Px2 current amplitudes at +60 mV
  inhibition at 300 µM: 27%
Cx46 hemi-channels; 30 μM FFA, 30 min application, starting with the 0 mV depolarization step
  effect on Cx46 hemi-channels: strong (P<0.005) and fully reversible inhibition
Cx46 hemi-channels; increasing FFA concentrations, 300 μM FFA, 30 min, listed as FFA
  effect on Cx46 hemi-channel currents: virtually suppressed Cx46 hemi-channels; also recorded: almost complete blockade

## CC1(C)[C@@H](OC(=O)CCC(=O)O)CC[C@]2(C)[C@H]3C(=O)C=C4[C@@H]5C[C@@](C)(C(=O)O)CC[C@]5(C)CC[C@@]4(C)[C@]3(C)CC[C@@H]12 [carbenoxolone]
Px1 hemi-channels; 3 μM CBX, +60 mV
  effect on time constant (τ) of Px1 channel closure: gated much faster than in control medium
Px1 hemi-channels; 3 μM CBX, depolarized to +60 mV from −40 mV, first order exponential decay fit
  time constants (τ) of Px1 channel closure, faster than in control medium: approximately 10 times
Px1 hemi-channels; 10 μM CBX, 30 min incubation
  decrease of Px1 hemi-channel currents: 50-60%
Px1 hemi-channels; 30 μM carbenoxolone, 10-30 min incubation
  effect on Px1 currents: completely suppressed Px1 currents
Px1 hemi-channels; 30 μM carbenoxolone, 10-30 min incubation, control medium 1189±170 nA, n=4
  peak amplitude of Px1 currents at +60 mV: 255±47 nA
Px1 hemi-channels; 50 μM, 30 min incubation, reversible on washout, listed as CBX
  effect on Px1 hemi-channel currents: robust and reversible decrease; also recorded: strongly blocked
Px1 hemi-channels; concentration dependence of blockade of Px1 hemi-channel currents
  Hill coefficient: ~1
Px1 hemi-channels; normalized peak currents at +60 mV, fit to Hill equation, 3-9 cells, read-out: IC50 of blockade of Px1 hemi-channel currents
  IC50: 5 µM and ~5 µM
Px1 hemi-channels; up to highest dose tested (100 μM), washout and 30 min in control medium
  reversibility of inhibition of Px1 hemi-channels: always reversible
Px1 hemi-channels; very low CBX concentrations (<1 μM)
  effect on Px1 hemi-channel currents: ineffective
Px1/Px2 hemi-channels; 10 μM CBX, 30 min incubation
  decrease of Px1/Px2 hemi-channel currents: 50-60%
Px1/Px2 hemi-channels; 10 μM CBX, control medium 612±50 nA, n=6 cells
  current amplitude at the +60 mV depolarization step: 266±24 nA
Px1/Px2 hemi-channels; after 10 μM CBX, washout and 30 min in control medium, n=6 cells
  current amplitude at the +60 mV depolarization step after reversibility period: 541±70 nA
Cx46 hemi-channels; 10 μM CBX, 30 min incubation
  effect on I-V relationship of Cx46-expressing oocytes: virtually identical to that measured in control medium

## CC1(C)[C@@H](O)CC[C@]2(C)[C@H]3C(=O)C=C4[C@H]5C[C@@](C)(C(=O)O)CC[C@]5(C)CC[C@@]4(C)[C@]3(C)CC[C@@H]12 [βGA, β-glycyrrhetinic acid]
Px1 hemi-channels; 50 μM, 30 min incubation, reversible on washout
  effect on Px1 hemi-channel currents: robust and reversible decrease; also recorded: strongly blocked

Reference: patent publication US20080132446A1, “Uses of neuronal pannexins for therapy and diagnosis in mammals” (INSTITUT PASTEUR, priority 2003, published 2008)
